# From BindingDB's records for patent US20240124450 (Pfizer, 2024)
# How the values were obtained:
# Assay in all cases: Enzyme Assay: Pan SIK MS IC50 Assay
# [1] = molecular target: Serine/threonine-protein kinase SIK1 (Homo sapiens, UniProt P57059)
# Protocol: (§1) Salt Induced Kinase (SIK) activity is determined by measuring the effect of a test agent on the activity of the appropriate SIK enzyme to phosphorylate its corresponding substrate. […] The phosphorylated substrate product resulting from the kinase reaction is detected by LCMS/MS, and the area under the peak curve correlates with kinase activity. […] The plates are spun at 1000 rpm for 30 seconds to ensure compounds are at the bottom of the well before removing foil covers. 0.15 μL HPE (assay std) and ZPE (DMSO) are added to the ARP using an HP D300 dispenser. Plates are spun again at 1000 rpm for 30 seconds. […] Plates are spun at 1000 rpm for 30 seconds. Plates are then sealed and incubated at RT for 10 minutes. Following incubation, 5 μL of 5× peptide reagent is added with a Multidrop Combi and designated small volume cassette to initiate the kinase reaction. Plates are spun at 1000 rpm for 30 seconds. Plates are then sealed and incubated at RT for 90 minutes. The assay is stopped by the addition of 5 μl of 120 mM EDTA added with a Multidrop Combi and designated small volume cassette (20 mM final concentration). Plates are spun at 1000 rpm for 30 seconds. 10 μl of the final reaction mix from each of the three individual enzyme plates are transferred by a Platemate Plus to the same corresponding 96 well deepwell plate containing 70 μl Water/Methanol (85/15%) for multiplex MS detection ([…]). Using Activity Base (ABase), an idbs data analysis software tool, the reported area ratio unit data is associated to compound, batch and dose information, the data is evaluated for quality, and the percent inhibition of each well is calculated. The data from each Max effect/HPE and Min effect/ZPE control wells are assessed, and outliers are excluded from all further calculations. The mean and standard deviation of the HPE and ZPE are then calculated for each plate, along with the Z Prime. The compound data is converted into % effect, using the average ZPE and HPE controls as 0% and 100% activity, respectively.
# [2] = molecular target: Serine/threonine-protein kinase SIK3 (Homo sapiens, UniProt Q9Y2K2)
# Chain of Serine/threonine-protein kinase SIK3 (Q9Y2K2 whole entry): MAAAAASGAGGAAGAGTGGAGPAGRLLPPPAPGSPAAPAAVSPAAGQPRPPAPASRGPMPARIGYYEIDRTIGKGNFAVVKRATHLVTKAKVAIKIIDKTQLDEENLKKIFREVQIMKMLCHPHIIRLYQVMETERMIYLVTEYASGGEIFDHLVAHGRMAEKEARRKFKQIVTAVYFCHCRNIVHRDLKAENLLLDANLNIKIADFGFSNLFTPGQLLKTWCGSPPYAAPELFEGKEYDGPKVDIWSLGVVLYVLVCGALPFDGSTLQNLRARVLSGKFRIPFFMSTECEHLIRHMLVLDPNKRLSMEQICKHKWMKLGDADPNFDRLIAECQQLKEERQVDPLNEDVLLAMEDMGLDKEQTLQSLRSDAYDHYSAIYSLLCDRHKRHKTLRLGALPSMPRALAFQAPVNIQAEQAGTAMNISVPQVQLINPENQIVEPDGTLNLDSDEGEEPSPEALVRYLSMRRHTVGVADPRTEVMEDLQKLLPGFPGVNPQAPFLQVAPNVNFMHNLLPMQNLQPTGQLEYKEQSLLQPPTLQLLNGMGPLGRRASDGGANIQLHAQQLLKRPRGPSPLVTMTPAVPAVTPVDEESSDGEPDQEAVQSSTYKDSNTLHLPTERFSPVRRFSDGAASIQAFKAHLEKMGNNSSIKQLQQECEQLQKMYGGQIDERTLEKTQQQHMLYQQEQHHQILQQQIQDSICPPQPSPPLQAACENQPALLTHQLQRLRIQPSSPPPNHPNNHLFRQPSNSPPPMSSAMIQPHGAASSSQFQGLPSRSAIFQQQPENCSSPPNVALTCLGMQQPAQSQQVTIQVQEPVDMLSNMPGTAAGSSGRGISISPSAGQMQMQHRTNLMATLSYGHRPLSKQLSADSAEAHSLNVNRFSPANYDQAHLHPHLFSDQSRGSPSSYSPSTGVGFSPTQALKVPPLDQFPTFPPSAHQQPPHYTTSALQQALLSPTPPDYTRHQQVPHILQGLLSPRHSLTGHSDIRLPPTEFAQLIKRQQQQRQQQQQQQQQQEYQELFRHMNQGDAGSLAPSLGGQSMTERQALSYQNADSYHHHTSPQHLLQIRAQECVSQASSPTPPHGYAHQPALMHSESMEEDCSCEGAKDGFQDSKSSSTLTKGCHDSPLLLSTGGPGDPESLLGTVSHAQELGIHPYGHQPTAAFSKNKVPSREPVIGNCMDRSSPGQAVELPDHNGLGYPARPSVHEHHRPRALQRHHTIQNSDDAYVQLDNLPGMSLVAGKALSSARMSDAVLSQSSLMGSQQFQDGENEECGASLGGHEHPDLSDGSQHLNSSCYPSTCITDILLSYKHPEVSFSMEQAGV
# Protocol: as §1
# [3] = molecular target: Serine/threonine-protein kinase SIK2 (Homo sapiens, UniProt Q9H0K1)
# Chain of Serine/threonine-protein kinase SIK2 (Q9H0K1 whole entry): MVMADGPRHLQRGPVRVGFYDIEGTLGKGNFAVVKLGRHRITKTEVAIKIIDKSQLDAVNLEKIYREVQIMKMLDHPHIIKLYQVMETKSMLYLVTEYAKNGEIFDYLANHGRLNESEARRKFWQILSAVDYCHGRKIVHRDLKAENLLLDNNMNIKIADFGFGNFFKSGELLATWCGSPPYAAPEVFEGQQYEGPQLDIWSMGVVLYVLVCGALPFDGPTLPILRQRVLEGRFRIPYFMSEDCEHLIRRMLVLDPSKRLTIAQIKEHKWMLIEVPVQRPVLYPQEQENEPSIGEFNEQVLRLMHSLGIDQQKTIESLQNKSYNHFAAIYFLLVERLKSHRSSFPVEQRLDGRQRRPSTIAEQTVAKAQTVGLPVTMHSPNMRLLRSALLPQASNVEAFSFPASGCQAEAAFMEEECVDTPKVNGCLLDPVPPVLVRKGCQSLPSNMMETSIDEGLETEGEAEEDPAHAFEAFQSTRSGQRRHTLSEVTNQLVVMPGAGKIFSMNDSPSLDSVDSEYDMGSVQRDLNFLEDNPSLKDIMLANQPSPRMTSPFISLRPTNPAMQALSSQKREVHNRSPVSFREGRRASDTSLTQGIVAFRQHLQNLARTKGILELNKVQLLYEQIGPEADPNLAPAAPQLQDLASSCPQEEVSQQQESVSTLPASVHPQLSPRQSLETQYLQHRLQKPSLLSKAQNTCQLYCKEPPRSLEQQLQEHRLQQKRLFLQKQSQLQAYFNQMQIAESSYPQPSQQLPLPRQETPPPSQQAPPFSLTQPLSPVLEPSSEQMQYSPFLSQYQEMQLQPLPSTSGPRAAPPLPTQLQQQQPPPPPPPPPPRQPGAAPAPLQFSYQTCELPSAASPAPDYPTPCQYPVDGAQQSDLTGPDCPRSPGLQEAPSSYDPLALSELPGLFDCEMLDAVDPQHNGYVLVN
# Protocol: as §1
# Chain of Serine/threonine-protein kinase SIK1 (P57059 whole entry): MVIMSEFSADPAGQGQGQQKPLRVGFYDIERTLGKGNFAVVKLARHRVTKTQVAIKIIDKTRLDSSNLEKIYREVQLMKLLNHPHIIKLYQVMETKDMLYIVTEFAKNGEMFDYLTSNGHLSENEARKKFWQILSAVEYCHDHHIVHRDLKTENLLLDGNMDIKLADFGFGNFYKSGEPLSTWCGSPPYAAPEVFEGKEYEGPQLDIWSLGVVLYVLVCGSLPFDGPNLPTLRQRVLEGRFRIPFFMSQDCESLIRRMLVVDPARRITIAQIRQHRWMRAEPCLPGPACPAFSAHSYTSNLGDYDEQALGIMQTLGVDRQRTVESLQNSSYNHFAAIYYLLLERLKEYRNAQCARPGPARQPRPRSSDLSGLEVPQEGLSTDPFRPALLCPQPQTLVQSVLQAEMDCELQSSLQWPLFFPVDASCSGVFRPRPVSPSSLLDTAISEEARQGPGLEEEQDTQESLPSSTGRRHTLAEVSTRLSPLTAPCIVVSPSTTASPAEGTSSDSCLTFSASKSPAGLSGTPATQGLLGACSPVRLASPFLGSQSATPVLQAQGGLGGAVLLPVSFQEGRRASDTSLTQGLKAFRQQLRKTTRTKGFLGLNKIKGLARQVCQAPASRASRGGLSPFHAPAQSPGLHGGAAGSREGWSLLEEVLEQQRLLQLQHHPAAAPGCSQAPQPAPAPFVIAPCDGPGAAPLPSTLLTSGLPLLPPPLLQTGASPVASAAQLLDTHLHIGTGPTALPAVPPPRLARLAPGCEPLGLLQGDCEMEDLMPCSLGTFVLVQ
IC50 [1],IC50 [2],IC50 [3],Compound
0.9 nM,2 nM,–,"CC[C@@H]1CCC[C@@]1(N)COc1cc(-c2cnc3cccc(OC)n23)cc(SC)c1C#N (mixture of isomers) [US20240124450, Example 9]"
0.8 nM,1.7 nM,–,"CC[C@@H]1CCC[C@](N)(COc2cc(-c3cnc4cccc(OC)n34)cc(OC)c2C#N)C1 [US20240124450, Example 16]"
2.4 nM,4.8 nM,1.8 nM,"CSc1cc(-c2cnc3cccc(C#N)n23)cc(OC[C@@]2(N)CCC(F)(F)C2)c1C#N (mixture of isomers) [US20240124450, Example 12]"
